Test results: patent publication US12077503B2, “Substituted cyclic amides and their use as herbicides” (FMC CORPORATION, priority 2015, dated 2024)

What was measured:
Format in all cases: in vivo
[1] = test system: ragweed (common ragweed, Ambrosia elatior); assay: Test A preemergence; conditions: Ambrosia artemisiifolia, pre-emergence, 240 h, 0 to 100 scale where 0 is no effect and 100 is complete control, read-out: Ragweed plant response rating
How it was run: (§1)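 Greenhouse, ~10 d after spray; visual injury vs untreated controls, 0 = no effect, 100 = complete control. Preemergence: directed soil spray over planted seeds. Postemergence: plants 2–10 cm, 1–2 leaf stage. Loam/sand blend. Compound in non-phytotoxic solvent with surfactant.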

Kochia (Kochia scoparia) [2] = assay: Test A preemergence; conditions: Bassia scoparia, pre-emergence, 240 h, 0 to 100 scale where 0 is no effect and 100 is complete control, read-out: Kochia plant response rating
How it was run: as §1

[3] = test system: pigweed (Amaranthus retroflexus); assay: Test A preemergence; conditions: Amaranthus retroflexus, pre-emergence, 240 h, 0 to 100 scale where 0 is no effect and 100 is complete control, read-out: Pigweed plant response rating
[4] = test system: ryegrass, Italian (Italian ryegrass, Lolium multiflorum); assay: Test A preemergence; conditions: Lolium multiflorum, pre-emergence, 240 h, 0 to 100 scale where 0 is no effect and 100 is complete control, read-out: Ryegrass, Italian plant response rating
How it was run: as §1

[5] = test system: giant foxtail (Setaria faberii); assay: Test A preemergence; conditions: Setaria faberi, pre-emergence, 240 h, 0 to 100 scale where 0 is no effect and 100 is complete control, read-out: Foxtail, Giant plant response rating
How it was run: as §1

[6] = test system: barnyardgrass (Echinochloa crus-galli); assay: Test A preemergence; conditions: Echinochloa crus-galli, pre-emergence, 240 h, 0 to 100 scale where 0 is no effect and 100 is complete control, read-out: Barnyardgrass plant response rating
How it was run: as §1

[7] = test system: sedge, umbrella (small-flower umbrella sedge, Cyperus difformis); assay: Test B flooded paddy test; conditions: Cyperus difformis, 250 g ai/ha, Flood; 0 to 100 scale where 0 is no effect and 100 is complete control; read-out: Sedge, Umbrella plant response rating
How it was run: (§2)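 Evaluation by eye, against controls, occurred 13–15 d post-treatment in a greenhouse, using a 0 (no effect) to 100 (complete control) scale. Application was into the paddy water, 3 cm deep over the soil, on 2-leaf plants.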

rice (Oryra sativa) = assay: Test B flooded paddy test; conditions: Oryza sativa, 250 g ai/ha, Flood; 0 to 100 scale where 0 is no effect and 100 is complete control; read-out: Rice plant response rating
How it was run: as §2

[8] = test system: barnyardgrass (Echinochloa crus-galli); assay: Test B flooded paddy test; conditions: Echinochloa crus-galli, 250 g ai/ha, Flood; 0 to 100 scale where 0 is no effect and 100 is complete control; read-out: Barnyardgrass plant response rating
How it was run: as §2

[9] = test system: ducksalad (Heteranthera limosa); assay: Test B flooded paddy test; conditions: Heteranthera limosa, 250 g ai/ha, Flood; 0 to 100 scale where 0 is no effect and 100 is complete control; read-out: Ducksalad plant response rating
How it was run: as §2

corn (Zea mays) = assay: Test A postemergence; conditions: Zea mays, post-emergence, 240 h
How it was run: as §1

[10] = test system: ragweed (common ragweed, Ambrosia elatior); assay: Test A postemergence; conditions: Ambrosia artemisiifolia, post-emergence, 240 h
How it was run: as §1

Kochia (Kochia scoparia) [11] = assay: Test A postemergence; conditions: Bassia scoparia, post-emergence, 240 h
How it was run: as §1

[12] = test system: Galium (catchweed bedstraw, Galium aparine); assay: Test A postemergence; conditions: Galium, post-emergence, 240 h
How it was run: as §1

[13] = test system: pigweed (Amaranthus retroflexus); assay: Test A postemergence; conditions: Amaranthus retroflexus, post-emergence, 240 h
How it was run: as §1

[14] = test system: ryegrass, Italian (Italian ryegrass, Lolium multiflorum); assay: Test A postemergence; conditions: Lolium multiflorum, post-emergence, 240 h
How it was run: as §1

[15] = test system: wheat (Triticum aestivum); assay: Test A postemergence; conditions: Triticum aestivum, post-emergence, 240 h
How it was run: as §1

[16] = test system: giant foxtail (Setaria faberii); assay: Test A postemergence; conditions: Setaria faberi, post-emergence, 240 h
How it was run: as §1

[17] = test system: blackgrass (Alopecurus myosuroides); assay: Test A postemergence; conditions: Alopecurus myosuroides, post-emergence, 240 h
How it was run: as §1

[18] = test system: barnyardgrass (Echinochloa crus-galli); assay: Test A postemergence; conditions: Echinochloa crus-galli, post-emergence, 240 h
How it was run: as §1

[19] = 125 g ai/ha, preemergence, approx. 10 d

In the case of `CON1CC[C@H](c2ccc(C(F)(F)F)cc2)[C@@H](C(=O)Nc2ccc(F)c(F)c2F)C1=O` [Compound 1107], the pest or weed control at 31 g/ha ([1]; 31 g ai/ha, Preemergence) is reported as 0%, the pest or weed control at 125 g/ha [1, 19] is reported as 0% and the pest or weed control at 31 g/ha (Kochia (Kochia scoparia) [2]; 31 g ai/ha, Preemergence) is reported as 0%. The pest or weed control at 125 g/ha (Kochia (Kochia scoparia) [2]; [19]) was 0%, the pest or weed control at 31 g/ha ([3]; 31 g ai/ha, Preemergence) was 0% and the pest or weed control at 125 g/ha [3, 19] was 0%. For the same compound, the pest or weed control at 31 g/ha ([4]; 31 g ai/ha, Preemergence) was 0%, the pest or weed control at 125 g/ha [4, 19] was 0% and the pest or weed control at 31 g/ha ([5]; 31 g ai/ha, Preemergence) was 0%. It also gave a pest or weed control at 125 g/ha [5, 19] of 0%, a pest or weed control at 31 g/ha ([6]; 31 g ai/ha, Preemergence) of 0% and a pest or weed control at 125 g/ha [6, 19] of 0%. The pest or weed control at 250 g/ha [7] was 0%, the pest or weed control at 250 g/ha (rice (Oryra sativa)) was 0% and the pest or weed control at 250 g/ha [8] was 0%. It also gave a pest or weed control at 250 g/ha [9] of 80%, a plant injury at 125 g/ha (corn (Zea mays); 125 g ai/ha, postemergence, visual injury on 0 to 100 scale (0 no effect, 100 complete control), approx. 10 d, read-out: Corn plant response rating) of 0% and a Corn plant response rating (crop injury, 0 = no effect, 100 = complete kill) at 31 g/ha (corn (Zea mays); Postemergence, 31 g ai/ha, visual injury after approx. 10 d, 0 to 100 scale, 0 no effect, 100 complete control) of 0%. For the same compound, the pest or weed control at 125 g/ha ([10]; 125 g ai/ha, postemergence, visual injury on 0 to 100 scale (0 no effect, 100 complete control), approx. 10 d, read-out: Ragweed plant response rating) was 0%, the pest or weed control at 31 g/ha ([10]; Postemergence, 31 g ai/ha, visual injury after approx. 10 d, 0 to 100 scale, 0 no effect, 100 complete control, read-out: Plant response rating, Ragweed) was 0% and the pest or weed control at 125 g/ha (Kochia (Kochia scoparia) [11]; 125 g ai/ha, postemergence, visual injury on 0 to 100 scale (0 no effect, 100 complete control), approx. 10 d, read-out: Kochia plant response rating) was 0%. It also gave a pest or weed control at 31 g/ha (Kochia (Kochia scoparia) [11]; Postemergence, 31 g ai/ha, visual injury after approx. 10 d, 0 to 100 scale, 0 no effect, 100 complete control, read-out: Plant response rating, Kochia) of 0%, a pest or weed control at 125 g/ha ([12]; 125 g ai/ha, postemergence, visual injury on 0 to 100 scale (0 no effect, 100 complete control), approx. 10 d, read-out: Galium plant response rating) of 0% and a pest or weed control at 31 g/ha ([12]; Postemergence, 31 g ai/ha, visual injury after approx. 10 d, 0 to 100 scale, 0 no effect, 100 complete control, read-out: Plant response rating, Galium) of 0%. For the same compound, the pest or weed control at 125 g/ha ([13]; 125 g ai/ha, postemergence, visual injury on 0 to 100 scale (0 no effect, 100 complete control), approx. 10 d, read-out: Pigweed plant response rating) was 0%, the pest or weed control at 31 g/ha ([13]; Postemergence, 31 g ai/ha, visual injury after approx. 10 d, 0 to 100 scale, 0 no effect, 100 complete control, read-out: Plant response rating, Pigweed) was 0% and the pest or weed control at 125 g/ha ([14]; 125 g ai/ha, postemergence, visual injury on 0 to 100 scale (0 no effect, 100 complete control), approx. 10 d, read-out: Ryegrass, Italian plant response rating) was 0%. The pest or weed control at 31 g/ha ([14]; Postemergence, 31 g ai/ha, visual injury after approx. 10 d, 0 to 100 scale, 0 no effect, 100 complete control, read-out: Plant response rating, Ryegrass, Italian) was 0%, the plant injury at 125 g/ha ([15]; 125 g ai/ha, postemergence, visual injury on 0 to 100 scale (0 no effect, 100 complete control), approx. 10 d, read-out: Wheat plant response rating) was 0% and the plant injury at 31 g/ha ([15]; Postemergence, 31 g ai/ha, visual injury after approx. 10 d, 0 to 100 scale, 0 no effect, 100 complete control, read-out: Plant response rating, Wheat) was 0%. For the same compound, the pest or weed control at 125 g/ha ([16]; 125 g ai/ha, postemergence, visual injury on 0 to 100 scale (0 no effect, 100 complete control), approx. 10 d, read-out: Foxtail, Giant plant response rating) was 0%, the pest or weed control at 31 g/ha ([16]; Postemergence, 31 g ai/ha, visual injury after approx. 10 d, 0 to 100 scale, 0 no effect, 100 complete control, read-out: Plant response rating, Foxtail, Giant) was 0% and the pest or weed control at 125 g/ha ([17]; 125 g ai/ha, postemergence, visual injury on 0 to 100 scale (0 no effect, 100 complete control), approx. 10 d, read-out: Blackgrass plant response rating) was 0%. For the same compound, the pest or weed control at 31 g/ha ([17]; Postemergence, 31 g ai/ha, visual injury after approx. 10 d, 0 to 100 scale, 0 no effect, 100 complete control, read-out: Plant response rating, Blackgrass) was 0%, the pest or weed control at 125 g/ha ([18]; 125 g ai/ha, postemergence, visual injury on 0 to 100 scale (0 no effect, 100 complete control), approx. 10 d, read-out: Barnyardgrass plant response rating) was 0% and the pest or weed control at 31 g/ha ([18]; Postemergence, 31 g ai/ha, visual injury after approx. 10 d, 0 to 100 scale, 0 no effect, 100 complete control, read-out: Plant response rating, Barnyardgrass) was 0%.
